Results taken from patent publication US8148373B2, “Compounds” (AstraZeneca AB, priority 2008, dated 2012).

How the values were obtained:
[1] = target: T1, Adrenergic β2 (H292 cells) (Homo sapiens, UniProt P07550); assay: Adrenergic β2 Mediated cAMP Production, single concentration 1 μM; assay type: cell-based; settings: NCI-H292, 1 μM compound, percentage of the maximum response generated by 1E-07M formoterol, read-out: β2 (% effect at 1 μM)
T1 construct: endogenous in cells; host or cells: H292 cells
T1 sequence (P07550 whole entry): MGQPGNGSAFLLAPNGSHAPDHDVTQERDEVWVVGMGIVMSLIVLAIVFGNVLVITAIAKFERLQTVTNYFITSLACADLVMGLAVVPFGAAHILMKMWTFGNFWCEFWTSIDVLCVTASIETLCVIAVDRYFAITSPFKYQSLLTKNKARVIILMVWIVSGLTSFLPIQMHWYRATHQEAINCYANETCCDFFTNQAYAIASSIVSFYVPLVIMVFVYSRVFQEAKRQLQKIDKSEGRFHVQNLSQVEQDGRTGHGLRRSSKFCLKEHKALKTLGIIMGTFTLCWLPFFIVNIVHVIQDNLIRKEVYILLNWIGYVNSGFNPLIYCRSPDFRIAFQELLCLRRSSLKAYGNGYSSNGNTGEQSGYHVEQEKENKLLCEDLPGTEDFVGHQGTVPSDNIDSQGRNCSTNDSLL
Protocol: The following experimental procedure was used to measure the beta-2% effect at 1 μM for the compounds of Examples 116-263. Adrenergic β2 Mediated cAMP Production Cell Preparation
H292 cells are grown in 225 cm2 flasks incubator at 37° C., 5% CO2 in RPMI medium containing 10% (v/v) FBS (foetal bovine serum) and 2 mM L-glutamine.
Compounds were prepared by an initial first dilution into DMSO to give 1 mM stock concentration. This was followed by a 1 in 10 dilution of the stock concentration (10 μl stock compound+90 μl DMSO) to give 0.1 mM compound.
A compound addition plate was prepared by making a further 1 in 25 dilution in assay buffer (HBSS solution containing 10 mM HEPES pH7.4 and 5 mM glucose) containing 4% dimethylsulfoxide. The final compound concentration in assay is 1 μM.
Adherent H292 cells are removed from tissue culture flasks by treatment with Accutase™ cell detachment solution for 15 minutes. Flasks are incubated for 15 minutes in a humidified incubator at 37° C., 5% CO2. Detached cells are re-suspended in RPMI media (containing 10% (v/v) FBS and 2 mM L-glutamine) at 0.1×10^6 cells per mL. 10000 cells in 100 μL are added to each well of a tissue-culture-treated 96-well plate and the cells incubated overnight in a humidified incubator at 37° C., 5% CO2. The culture media is removed and cells are washed twice with 100 μL assay buffer and replaced with 50 μL assay buffer (HBSS solution containing 10 mM HEPES pH7.4 and 5 mM glucose). Cells are rested at room temperature for 20 minutes after which time 25 μL of rolipram (1.2 mM made up in assay buffer) is added. Cells are incubated with rolipram for 10 minutes after which time 25 μl test compounds are added and the cells are incubated for 60 minutes at room temperature. The final rolipram concentration in the assay is 300 μM and final vehicle concentration is 1% (v/v) dimethylsulphoxide. The reaction is stopped by removing supernatants, washing once with 100 μL assay buffer and replacing with 50 μL lysis buffer. The cell monolayer is frozen at −80° C. for 30 minutes (or overnight).
AlphaScreen™ cAMP Detection
The concentration of cAMP (cyclic adenosine monophosphate) in the cell lysate is determined using AlphaScreen™ methodology. The frozen cell plate is thawed for 20 minutes on a plate shaker then 10 μL of the cell lysate is transferred to a 96-well white plate. 40 μL of mixed AlphaScreen™ detection beads (containing equal volumes of donor beads (pre-incubated with biotinylated cAMP in the dark for 30 minutes) and acceptor beads is added to each well and the plate incubated at room temperature for 3 hours in the dark. The AlphaScreen™ signal is measured using an EnVision spectrophotometer (Perkin-Elmer Inc.) with the recommended manufacturer's settings. Concentration of cAMP produced per well were calculated with reference to the cAMP standard curve determined in the same experiment and expressed as a percentage of the maximum response generated by 1E-07M formoterol.

[2] = target: T2, human muscarinic acetylcholine M3 receptor (M3-ACh) (Homo sapiens, UniProt P20309); assay: Muscarinic 3 Receptor Binding Assay, % inhibition specific binding at 1 μM; settings: 1 μM compound, % inhibition specific [3H]-NMS binding
T2 construct: expressed in transfected cells; host or cells: CHO-K1 (Chinese Hamster Ovary) cell membranes
T2 sequence (P20309 whole entry): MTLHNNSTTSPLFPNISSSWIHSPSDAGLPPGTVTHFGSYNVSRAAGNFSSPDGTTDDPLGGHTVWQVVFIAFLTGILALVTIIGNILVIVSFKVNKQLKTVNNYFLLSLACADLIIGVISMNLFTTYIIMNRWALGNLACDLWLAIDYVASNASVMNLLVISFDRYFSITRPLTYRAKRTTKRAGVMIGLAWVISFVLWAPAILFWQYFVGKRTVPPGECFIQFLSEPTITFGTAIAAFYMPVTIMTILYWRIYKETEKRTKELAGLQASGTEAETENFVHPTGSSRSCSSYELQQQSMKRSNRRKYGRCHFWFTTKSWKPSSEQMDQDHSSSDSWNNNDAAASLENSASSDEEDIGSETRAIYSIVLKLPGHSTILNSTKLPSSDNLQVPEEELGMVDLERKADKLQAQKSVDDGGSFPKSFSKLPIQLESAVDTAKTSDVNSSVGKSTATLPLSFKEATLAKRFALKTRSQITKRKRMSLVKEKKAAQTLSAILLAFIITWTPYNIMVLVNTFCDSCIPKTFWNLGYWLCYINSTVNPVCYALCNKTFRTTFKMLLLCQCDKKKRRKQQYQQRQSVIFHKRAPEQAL
Protocol: The following experimental procedure was used to determine the M3% inhibition at 1 μM of the compounds of Examples 116-263.
Muscarinic 3 Receptor Binding Assay
The activity (% inhibition specific binding) of compounds -on the M3 receptor is determined by competition binding of [^3H]N-methyl scopolamine (NMS) to CHO-K1 (Chinese Hamster Ovary) cell membranes expressing the human muscarinic acetylcholine M3 receptor (M3-ACh) in a scintillation proximity assay (SPA) format.
SPA beads are precoated with membranes and then incubated at 2 mg of beads per well with 1 μM compound of the invention, [^3H]NMS at 0.1 nM, quarter Kd (experimentally determined dissociation constant) and assay buffer (20 mM HEPES pH 7.4 containing 5 mM MgCl2). The assay is conducted in a final volume of 200 μL, in the presence of 1% (v/v) dimethyl sulphoxide (DMSO). Total binding of [^3H]NMS is determined in the absence of competing compound and non-specific binding of [^3H]NMS is determined in the presence of 1 μM atropine. The plates are incubated for 16 hours at room temperature and then read on Wallac Microbeta™ using a normalised ^3H protocol. The compound activity at 1 defined as % inhibition specific [^3H]-NMS binding, is determined.

| Structure (SMILES) | activation at 1 µM [1] [%] | inhibition at 1 µM [2] [%] |
| --- | --- | --- |
| O=C(CCc1nc2ccccc2[nH]1)N1CCOC2(CCN(Cc3cc(F)cc(CCNC[C@H](O)c4ccc(O)c5[nH]c(=O)sc45)c3)CC2)C1 [Example 116, (R)-7-(2-(3-((4-(3-(1H-benzo[d]imidazol-2-yl)propanoyl)-1-oxa-4,9-diazaspiro[5.5]undecan-9-yl)methyl)-5-fluorophenethylamino)-1-hydroxyethyl)-4-hydroxybenzo[d]thiazol-2(3H)-one] | 111 | 3 |
| COc1ccccc1CC(=O)N1CCOC2(CCN(Cc3cc(F)cc(CCNC[C@H](O)c4ccc(O)c5[nH]c(=O)sc45)c3)CC2)C1 [Example 117, (R)-7-(2-(3-fluoro-5-((4-(2-(2-methoxyphenyl)acetyl)-1-oxa-4,9-diazaspiro[5.5]undecan-9-yl)methyl)phenethylamino)-1-hydroxyethyl)-4-hydroxybenzo[d]thiazol-2(3H)-one] | 101 | 22 |
| O=C(c1ccc2ccccc2n1)N1CCOC2(CCN(Cc3cc(F)cc(CCNC[C@H](O)c4ccc(O)c5[nH]c(=O)sc45)c3)CC2)C1 [Example 119, (R)-7-(2-(3-fluoro-5-((4-(quinoline-2-carbonyl)-1-oxa-4,9-diazaspiro[5.5]undecan-9-yl)methyl)phenethylamino)-1-hydroxyethyl)-4-hydroxybenzo[d]thiazol-2(3H)-one] | 100 | 60 |
| O=C(c1cc2ccccc2[nH]1)N1CCOC2(CCN(Cc3cc(F)cc(CCNC[C@H](O)c4ccc(O)c5[nH]c(=O)sc45)c3)CC2)C1 [Example 120, (R)-7-(2-(3-((4-(1H-indole-2-carbonyl)-1-oxa-4,9-diazaspiro[5.5]undecan-9-yl)methyl)-5-fluorophenethylamino)-1-hydroxyethyl)-4-hydroxybenzo[d]thiazol-2(3H)-one] | 101 | 82 |
| Cc1ccccc1C(=O)N1CCOC2(CCN(Cc3cc(F)cc(CCNC[C@H](O)c4ccc(O)c5[nH]c(=O)sc45)c3)CC2)C1 [Example 121, (R)-7-(2-(3-fluoro-5-((4-(2-methylbenzoyl)-1-oxa-4,9-diazaspiro[5.5]undecan-9-yl)methyl)phenethylamino)-1-hydroxyethyl)-4-hydroxybenzo[d]thiazol-2(3H)-one] | 85 | 28 |
| Cc1cccc(C(=O)N2CCOC3(CCN(Cc4cc(F)cc(CCNC[C@H](O)c5ccc(O)c6[nH]c(=O)sc56)c4)CC3)C2)c1 [Example 122, (R)-7-(2-(3-fluoro-5-((4-(3-methylbenzoyl)-1-oxa-4,9-diazaspiro[5.5]undecan-9-yl)methyl)phenethylamino)-1-hydroxyethyl)-4-hydroxybenzo[d]thiazol-2(3H)-one] | 82 | 86 |
| O=C(Cc1ccc(-c2ccccc2)cc1)N1CCOC2(CCN(Cc3cc(F)cc(CCNC[C@H](O)c4ccc(O)c5[nH]c(=O)sc45)c3)CC2)C1 [Example 123, (R)-7-(2-(3-((4-(2-(biphenyl-4-yl)acetyl)-1-oxa-4,9-diazaspiro[5.5]undecan-9-yl)methyl)-5-fluorophenethylamino)-1-hydroxyethyl)-4-hydroxybenzo[d]thiazol-2(3H)-one] | 97 | 62 |
| Cc1ccsc1C(=O)N1CCOC2(CCN(Cc3cc(F)cc(CCNC[C@H](O)c4ccc(O)c5[nH]c(=O)sc45)c3)CC2)C1 [Example 125, (R)-7-(2-(3-fluoro-5-((4-(3-methylthiophene-2-carbonyl)-1-oxa-4,9-diazaspiro[5.5]undecan-9-yl)methyl)phenethylamino)-1-hydroxyethyl)-4-hydroxybenzo[d]thiazol-2(3H)-one] | 97 | 52 |
| O=C(Cc1ccsc1)N1CCOC2(CCN(Cc3cc(F)cc(CCNC[C@H](O)c4ccc(O)c5[nH]c(=O)sc45)c3)CC2)C1 [Example 126, (R)-7-(2-(3-fluoro-5-((4-(2-(thiophen-3-yl)acetyl)-1-oxa-4,9-diazaspiro[5.5]undecan-9-yl)methyl)phenethylamino)-1-hydroxyethyl)-4-hydroxybenzo[d]thiazol-2(3H)-one] | 98 | 50 |

Now from value to compound:

| activation at 1 µM [1] [%] | inhibition at 1 µM [2] [%] | Structure (SMILES) |
| --- | --- | --- |
| 97 | 78 | Cc1ccoc1C(=O)N1CCOC2(CCN(Cc3cc(F)cc(CCNC[C@H](O)c4ccc(O)c5[nH]c(=O)sc45)c3)CC2)C1 [Example 127, (R)-7-(2-(3-fluoro-5-((4-(3-methylfuran-2-carbonyl)-1-oxa-4,9-diazaspiro[5.5]undecan-9-yl)methyl)phenethylamino)-1-hydroxyethyl)-4-hydroxybenzo[d]thiazol-2(3H)-one] |
| 112 | 14 | O=C(CCc1c[nH]c2ccccc12)N1CCOC2(CCN(Cc3cc(F)cc(CCNC[C@H](O)c4ccc(O)c5[nH]c(=O)sc45)c3)CC2)C1 [Example 128, (R)-7-(2-(3-((4-(3-(1H-indol-3-yl)propanoyl)-1-oxa-4,9-diazaspiro[5.5]undecan-9-yl)methyl)-5-fluorophenethylamino)-1-hydroxyethyl)-4-hydroxybenzo[d]thiazol-2(3H)-one] |
| 90 | 20 | O=C(N1CCOC2(CCN(Cc3cc(F)cc(CCNC[C@H](O)c4ccc(O)c5[nH]c(=O)sc45)c3)CC2)C1)C1(c2ccccc2)CCCC1 [Example 129, (R)-7-(2-(3-fluoro-5-((4-(1-phenylcyclopentanecarbonyl)-1-oxa-4,9-diazaspiro[5.5]undecan-9-yl)methyl)phenethylamino)-1-hydroxyethyl)-4-hydroxybenzo[d]thiazol-2(3H)-one] |
| 95 | 41 | Cc1occc1C(=O)N1CCOC2(CCN(Cc3cc(F)cc(CCNC[C@H](O)c4ccc(O)c5[nH]c(=O)sc45)c3)CC2)C1 [Example 131, (R)-7-(2-(3-fluoro-5-((4-(2-methylfuran-3-carbonyl)-1-oxa-4,9-diazaspiro[5.5]undecan-9-yl)methyl)phenethylamino)-1-hydroxyethyl)-4-hydroxybenzo[d]thiazol-2(3H)-one] |
| 92 | 85 | O=C(c1ccc2ncsc2c1)N1CCOC2(CCN(Cc3cc(F)cc(CCNC[C@H](O)c4ccc(O)c5[nH]c(=O)sc45)c3)CC2)C1 [Example 132, (R)-7-(2-(3-((4-(benzo[d]thiazole-6-carbonyl)-1-oxa-4,9-diazaspiro[5.5]undecan-9-yl)methyl)-5-fluorophenethylamino)-1-hydroxyethyl)-4-hydroxybenzo[d]thiazol-2(3H)-one] |
| 110 | 56 | Cc1cccc2nc(C(=O)N3CCOC4(CCN(Cc5cc(F)cc(CCNC[C@H](O)c6ccc(O)c7[nH]c(=O)sc67)c5)CC4)C3)cn12 [Example 133, (R)-7-(2-(3-fluoro-5-((4-(5-methylimidazo[1,2-a]pyridine-2-carbonyl)-1-oxa-4,9-diazaspiro[5.5]undecan-9-yl)methyl)phenethylamino)-1-hydroxyethyl)-4-hydroxybenzo[d]thiazol-2(3H)-one] |
